According to the Kinase Knowledgebase extract (Sharma et al. 2016):
pIC50: −log10 of the molar value.

Target: CDK2 (human) (UniProt P24941)
Assay: Enzyme Assay

| SMILES | pIC50 |
| --- | --- |
| CC(C)c1n[nH]cc1-c1ccnc(N[C@H]2CCCc3ccccc32)n1 | > 6.30 |
| CC(C)c1n[nH]cc1-c1ccnc(NC2CN3CCC2CC3)n1 (stereo unspecified) | > 5.30 |
| Cc1n[nH]cc1-c1ccnc(NCCc2cccnc2)n1 | > 5.00 |
| CCC(C)Nc1nccc(-c2c[nH]nc2C)n1 (stereo unspecified) | > 5.30 |
| CC(C)c1n[nH]cc1-c1ccnc(NC2CCc3cc(Cl)ccc32)n1 (stereo unspecified) | > 6.30 |
| CC(C)CNc1nccc(-c2c[nH]nc2C(C)C)n1 | > 7.00 |
| Cc1n[nH]cc1-c1ccnc(NCc2cccc(C(F)(F)F)c2)n1 | > 5.00 |
| CC(C)c1[nH]ncc1-c1ccnc(NCC2CC2)c1 | > 5.30 |
| Cc1n[nH]cc1-c1ccnc(NC2CCCC2)n1 | > 5.30 |
| CC(C)c1n[nH]cc1-c1ccnc(NC2CCCCC2)n1 | > 7.30 |
| CC(C)c1[nH]ncc1-c1ccnc(NCc2ccccc2C(F)(F)F)c1 | > 5.30 |
| CC(C)c1n[nH]cc1-c1ccnc(NCc2ccccc2Cl)n1 | > 6.00 |
| CC(C)c1n[nH]cc1-c1ccnc(NC2CCN(C)CC2)n1 | > 6.00 |
| CC(C)c1[nH]ncc1-c1ccnc(NC(C)c2ccccc2)c1 (stereo unspecified) | > 5.30 |
| c1cc(-c2cn[nH]c2C2CCCC2)cc(NCC2CC2)n1 | > 5.30 |
| CC(C)c1n[nH]cc1-c1ccnc(NC2Cc3ccccc3C2)n1 | > 6.30 |
| Cc1n[nH]cc1-c1ccnc(NC2CCN(Cc3ccccc3)C2)n1 (stereo unspecified) | > 5.00 |
| CCC(CC)c1[nH]ncc1-c1ccnc(NC2CCN(C(=O)OC(C)(C)C)CC2)c1 | > 5.30 |
| CC(C)c1[nH]ncc1-c1ccnc(NCc2cccc(C(F)(F)F)c2)c1 | > 5.30 |
| CC(C)c1n[nH]c(Br)c1-c1ccnc(NC2CCN(C)CC2)n1 | > 5.30 |
| CC(C)c1[nH]ncc1-c1ccnc(NC2CCc3ccccc32)c1 (stereo unspecified) | > 5.30 |
| Cc1nnc(CCNc2nccc(-c3c[nH]nc3C(C)C)n2)[nH]1 | > 5.30 |
| CC(C)CCNc1cc(-c2cn[nH]c2C(C)C)ccn1 | > 5.30 |
| CC(CCCC(C)(C)O)Nc1nccc(-c2c[nH]nc2C(C)C)n1 (stereo unspecified) | > 5.30 |
| COc1ccc(CNc2cc(-c3cn[nH]c3C(C)C)ccn2)cc1 | > 5.30 |
| c1ccc2c(c1)CC(Nc1cc(-c3cn[nH]c3C3CCCCCC3)ccn1)C2 | > 6.00 |

| SMILES | pIC50 |
| --- | --- |
| CC(C)c1nn(C)cc1-c1ccnc(NC2CCN(C)CC2)n1 | > 5.30 |
| Cc1ccccc1CNc1cc(-c2cn[nH]c2C(C)C)ccn1 | > 5.30 |
| CCC(CC)c1[nH]ncc1-c1ccnc(NC2CCN(C)CC2)c1 | > 5.00 |
| CC(C)c1n[nH]cc1-c1ccnc(NC2CCCc3ccccc32)n1 (stereo unspecified) | > 6.00 |
| Cc1ccccc1CNc1nccc(-c2c[nH]nc2C)n1 | > 5.00 |
| c1cc(-c2cn[nH]c2C2CCCC2)cc(NC2CCCC2)n1 | > 6.30 |
| CC(C)c1[nH]ncc1-c1ccnc(NCc2ccco2)c1 | > 5.30 |
| FC(F)(F)c1ccccc1CNc1cc(-c2cn[nH]c2C2CCCC2)ccn1 | > 5.30 |
| Cc1n[nH]cc1-c1ccnc(NCc2ccc(F)cc2)n1 | > 5.00 |
| Cc1cccc(CNc2cc(-c3cn[nH]c3C(C)C)ccn2)c1 | > 5.30 |
| Cc1n[nH]cc1-c1ccnc(NCC2CCCCCC2)n1 | > 4.82 |
| Cc1n[nH]cc1-c1ccnc(NC2Cc3ccccc3C2)n1 | > 5.30 |
| CC(C)c1n[nH]cc1-c1ccnc(NC2CCNCC2)n1 | > 6.00 |
| CC(C)c1n[nH]cc1-c1ccnc(N[C@H](C)c2ccccn2)n1 | > 5.30 |
| COc1ccc(CNc2nccc(-c3c[nH]nc3C)n2)cc1 | > 4.82 |
| CC(C)c1n[nH]cc1-c1ccnc(NCCCN(C)c2ccccc2)n1 | > 5.30 |
| CC(C)c1n[nH]cc1-c1ccnc(NC2CCN(Cc3ccccc3)CC2)n1 | > 6.00 |
| Cc1ccc(CNc2cc(-c3cn[nH]c3C3CCCC3)ccn2)cc1 | > 5.30 |
| Cc1n[nH]cc1-c1ccnc(NC2CCCCC2)n1 | > 5.30 |
| CC(CCc1ccccc1)Nc1nccc(-c2c[nH]nc2C(C)C)n1 (stereo unspecified) | > 5.30 |
| Cc1n[nH]cc1-c1ccnc(NCCCO)n1 | > 4.82 |
| CC(C)c1[nH]ncc1-c1ccnc(NCCc2cccnc2)c1 | > 5.30 |
| CN1CCC(Nc2cc(-c3cn[nH]c3C(C)(C)C)ccn2)CC1 | > 4.82 |
| CC(C)c1n[nH]cc1-c1ccnc(NC2CCc3ccccc32)n1 (stereo unspecified) | > 6.00 |
| CC(C)c1n[nH]cc1-c1nc(NC2CCN(C)CC2)ncc1Br | > 5.30 |
| CC(C)c1[nH]ncc1-c1ccnc(NC2CCCCCC2)c1 | > 6.30 |

| SMILES | pIC50 |
| --- | --- |
| Cc1n[nH]cc1-c1ccnc(NCCc2ccccc2)n1 | > 5.00 |
| c1ccc(CCNc2cc(-c3cn[nH]c3C3CCCC3)ccn2)cc1 | > 5.30 |
| COCCNc1cc(-c2cn[nH]c2C(C)C)ccn1 | > 5.00 |
| Cc1ccc(CNc2cc(-c3cn[nH]c3C(C)C)ccn2)cc1 | > 5.30 |
| Cc1cnc(NC2CCN(C)CC2)nc1-c1c[nH]nc1C(C)C | > 5.30 |
| CC(C)CNc1cc(-c2cn[nH]c2C2CCCC2)ccn1 | > 6.00 |
| CC(C)c1[nH]ncc1-c1ccnc(NCC2CCCO2)c1 (stereo unspecified) | > 5.00 |
| CC(C)c1[nH]ncc1-c1ccnc(NCCc2ccccc2)c1 | > 6.00 |
| CC(=O)NCCNc1nccc(-c2c[nH]nc2C)n1 | > 4.82 |
| CCC(C)c1[nH]ncc1-c1ccnc(NC2CCc3ccccc32)c1 (stereo unspecified) | > 5.30 |
| Cc1ccccc1CNc1cc(-c2cn[nH]c2C2CC2)ccn1 | > 5.30 |
| Cc1n[nH]cc1-c1ccnc(NC2CCN(c3ccccc3)CC2)n1 | > 5.30 |
| CC(C)c1n[nH]cc1-c1ccnc(N[C@@H](C)c2ccccc2)n1 | > 5.00 |
| CC(C)c1n[nH]cc1-c1ccnc(NC2CCN(C(=O)OC(C)(C)C)CC2)n1 | > 6.00 |
| CC(C)c1[nH]ncc1-c1ccnc(NCCN2CCOCC2)c1 | > 5.00 |
| Cc1n[nH]cc1-c1ccnc(NCCc2c[nH]c3ccccc23)n1 | > 5.00 |
| Cc1n[nH]cc1-c1ccnc(NCc2ccc3c(c2)OCO3)n1 | > 5.00 |
| Cc1n[nH]cc1-c1ccnc(NCCCn2ccnc2)n1 | > 5.00 |
| Cc1ccccc1CNc1nccc(-c2c[nH]nc2C(C)C)n1 | > 6.00 |
| Cc1n[nH]cc1-c1ccnc(NC2CCCNC2)n1 (stereo unspecified) | > 5.30 |
| CC(C)c1[nH]ncc1-c1ccnc(NC(CO)C(C)C)c1 (stereo unspecified) | > 4.82 |
| CC(C)c1[nH]ncc1-c1ccnc(NCC2CCCCC2)c1 | > 5.30 |
| COCC(C)Nc1nccc(-c2c[nH]nc2C(C)C)n1 (stereo unspecified) | > 6.00 |
| Cc1n[nH]cc1-c1ccnc(NCc2ccccc2)n1 | > 4.82 |
| Cc1n[nH]cc1-c1ccnc(NCC2CC2)n1 | > 5.00 |
| c1cc(-c2cn[nH]c2C2CCCC2)cc(NC2CC2)n1 | > 6.00 |

| SMILES | pIC50 |
| --- | --- |
| CC(C)c1[nH]ncc1-c1ccnc(NCC2CCCCCC2)c1 | > 5.30 |
| CC(C)c1n[nH]cc1-c1ccnc(NCc2ccccc2F)n1 | > 6.30 |
| Cc1n[nH]cc1-c1ccnc(NCc2ccncc2)n1 | > 4.82 |
| CC(C)c1[nH]ncc1-c1ccnc(NCCc2ccccn2)c1 | > 5.30 |
| CC(C)c1[nH]ncc1-c1ccnc(NCc2ccncc2)c1 | > 5.30 |
| CCCCNc1cc(-c2cn[nH]c2C(C)C)ccn1 | > 5.30 |
| CC(C)c1[nH]ncc1-c1ccnc(NC2CCC2)c1 | > 6.30 |
| CC(C)COCCCNc1nccc(-c2c[nH]nc2C(C)C)n1 | > 5.30 |
| c1cc(-c2cn[nH]c2C2CCCC2)cc(NC2CCC2)n1 | > 6.30 |
| CC(C)c1[nH]ncc1-c1ccnc(NCc2cc(F)cc(F)c2)c1 | > 5.30 |
| Cc1ccccc1CNc1cc(-c2cn[nH]c2C2CCCCCC2)ccn1 | > 5.00 |
| Cc1n[nH]cc1-c1ccnc(NC2CC2)n1 | > 5.00 |
| CC(C)c1n[nH]cc1-c1ccnc(NC2CCN(c3ccccc3)CC2)n1 | > 6.30 |
| CC(C)c1n[nH]cc1-c1ccnc(N[C@@H]2CCc3ccccc32)n1 | > 5.30 |
| CC(C)c1[nH]ncc1-c1ccnc(Nc2ccccc2)c1 | > 7.30 |
| CCC(Nc1nccc(-c2c[nH]nc2C(C)C)n1)c1ccccc1 (stereo unspecified) | > 5.30 |
| c1ccc2c(c1)CCC2Nc1cc(-c2cn[nH]c2C2CC2)ccn1 (stereo unspecified) | > 5.30 |
| CCCCNc1nccc(-c2c[nH]nc2C)n1 | > 5.00 |
| CC(C)c1n[nH]cc1-c1ccnc(NC2CCCCC2C)n1 (stereo unspecified) | > 6.00 |
| Cc1n[nH]cc1-c1ccnc(NC2CCC2)n1 | > 5.30 |
| CC(C)c1n[nH]cc1-c1ccnc(N[C@H]2CCc3ccccc32)n1 | > 6.30 |
| CCC(C)Nc1cc(-c2cn[nH]c2C(C)C)ccn1 (stereo unspecified) | > 6.00 |
| Cc1n[nH]cc1-c1ccnc(NCc2cccnc2)n1 | > 5.00 |
| c1cc(-c2cn[nH]c2C2CCCC2)cc(NC2CCCCC2)n1 | > 6.00 |
| CC(C)c1[nH]ncc1-c1ccnc(NC2CC2)c1 | > 6.00 |
| Cc1n[nH]cc1-c1ccnc(NCc2cc(F)cc(F)c2)n1 | > 5.30 |

| SMILES | pIC50 |
| --- | --- |
| CC(C)c1[nH]ncc1-c1ccnc(NC2CCN(Cc3ccccc3)CC2)c1 | > 4.82 |
| Cc1n[nH]cc1-c1ccnc(NC2CCN(C)CC2)n1 | > 4.82 |
| CC(C)c1[nH]ncc1-c1ccnc(NCc2ccccc2)c1 | > 5.30 |
| CCC(CC)c1[nH]ncc1-c1ccnc(NCc2ccccc2C)c1 | > 5.30 |
| CC(C)c1n[nH]cc1-c1ccnc(NCc2ccccc2C(F)(F)F)n1 | > 5.30 |
| CCC(C)c1[nH]ncc1-c1ccnc(NCc2ccccc2C)c1 (stereo unspecified) | > 5.30 |
| Cc1n[nH]cc1-c1ccnc(NC2CCc3ccccc32)n1 (stereo unspecified) | > 5.00 |
| CC(C)c1[nH]ncc1-c1ccnc(NCCCO)c1 | > 5.30 |
| CCCNc1cc(-c2cn[nH]c2C(C)C)ccn1 | > 5.30 |
| CC(C)c1n[nH]cc1-c1ccnc(NCc2c(F)cccc2F)n1 | > 5.30 |
| CC(C)c1n[nH]cc1-c1ccnc(NCCCNC2CCCCC2)n1 | > 5.00 |
| CC(C)c1[nH]ncc1-c1ccnc(NCCOc2ccccc2)c1 | > 5.00 |
| CC(C)CNc1cc(-c2cn[nH]c2C(C)C)ccn1 | > 6.30 |
| COc1ccccc1CNc1nccc(-c2c[nH]nc2C)n1 | > 4.82 |
| Cc1nnc(C(C)Nc2nccc(-c3c[nH]nc3C(C)C)n2)[nH]1 (stereo unspecified) | > 4.82 |
| CCC(CC)c1[nH]ncc1-c1ccnc(NC2CCc3ccccc32)c1 (stereo unspecified) | > 5.30 |
| CC(C)c1n[nH]cc1-c1ccnc(NC(C)c2ccccc2)n1 (stereo unspecified) | > 5.30 |
| c1cc(-c2cn[nH]c2C2CCCC2)cc(NC2CCCCCC2)n1 | > 6.00 |
| CC(C)c1n[nH]cc1-c1ccnc(NCCCN(C)C)n1 | > 5.00 |
| CC(C)c1n[nH]cc1-c1ccnc(NC2CCc3cc(F)ccc32)n1 (stereo unspecified) | > 6.30 |
| c1ccc2c(c1)CC(Nc1cc(-c3cn[nH]c3C3CC3)ccn1)C2 | > 6.00 |
| CC(C)c1[nH]ncc1-c1ccnc(NC2CCN(C)CC2)c1 | > 4.82 |
